Assay results reported in patent US20250154163A1, “Pyrimidinone-Containing 17-Beta-Hydroxysteroid Dehydrogenase Type 13 Inhibitors” (ENANTA PHARMACEUTICALS, INC., priority 2023, published 2025).
pIC50: −log10 of the molar value.

Target: T1, human HSD17β13 (stable HEK293T cell line overexpressing human HSD17β13) (Homo sapiens, UniProt Q7Z5P4)
T1 construct: expressed in transfected cells
T1 sequence (Q7Z5P4 20-300): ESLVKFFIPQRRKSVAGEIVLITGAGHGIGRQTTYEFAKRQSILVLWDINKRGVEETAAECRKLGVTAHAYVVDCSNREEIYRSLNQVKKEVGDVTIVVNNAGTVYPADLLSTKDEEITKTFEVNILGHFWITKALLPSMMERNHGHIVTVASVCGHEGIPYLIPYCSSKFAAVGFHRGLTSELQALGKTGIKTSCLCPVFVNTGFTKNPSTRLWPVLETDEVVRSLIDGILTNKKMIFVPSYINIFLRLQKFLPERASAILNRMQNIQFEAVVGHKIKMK
Test: HSD17β13 inhibitor cell-based screening assay (conversion of estradiol-d2 to estrone-d2 by RF-MS)
Conditions: conversion of estradiol-d2 to estrone-d2 after 24 hours
Method: The purpose of this cell-based assay is to determine the cellular efficacy (IC50) of HSD17β13 inhibitors in a stable HEK293 T cell line overexpressing human HSD17β13. The assay measures by Rapid Fire mass-spectrometry (RF-MS) the conversion of estradiol-d2 to estrone-d2. Cytotoxicity was also assessed via luminescent signal generated by the ATPlite viability assay reagent. To screen compounds for HSD17013 inhibition, black 384-well plates were seeded with 1000× concentration of compounds in a 9-point 1:3 dilution curve (final top concentration of 10 μM) as well as 1000× concentration of 17β-estradiol-d2 (5 μM final concentration) added to all wells. HEK293T cells stably overexpressing human HSD17013 and the parent HEK293T cell lines were then seeded in the plates on top of the compounds and substrate in MEM media containing 1% charcoal/dextran-treated FBS. Supernatant is collected and immediately frozen after 24 hours of incubation, and conversion of estradiol-d2 to estrone-d2 is measured at Pure Honey by RF-MS. The remaining media in the plate was removed from the wells and replaced with ATPlite viability assay reagent. Luminescent signal from the ATPlite reagent was measured on the Envision plate reader. 10 μL of 10 mM compounds stocks (1000×) dissolved in DMSO were pipetted into the appropriate wells on the 384 LDV plate (Labcyte; cat. no.: LP-0200) and the appropriate volumes of DMSO solvent were included onto an intermediate plate to further dilute the compound stocks to complete the 9-pt dose curve (final top concentration of 10 μM). 10 μL per well of 5 mM estradiol-d2 (1000×) (Cayman; item no.: 9002846) (5 μM final concentration) dissolved in DMSO was seeded into the appropriate number of wells on the same source plate as the compounds. The Echo 650 (Labcyte) was used for compound dilutions and dispensing both the compounds and the substrate onto a dry 384-well black assay plate (Falcon/Corning; cat. no.:353962). Afterwards, cells were immediately counted and seeded onto the plate. Cells were cultured for expansion in EMEM (ATCC; cat. no.: 30-2003)+10% FBS (Hyclone; cat. no.: SH3007003)+1×PenStrep (Gibco; cat. no.: 15140-122). All media for stable cell line overexpressing HSD17013 also included […] zeocin (Invitrogen; cat. no.: 46-0509) for selection. To prepare cells for seeding into the 384-well assay plate, cells were trypsinized for 3 minutes in the incubator. The Trypsin-EDTA (0.25%) (Gibco; cat. no.: 25200056) was neutralized with EMEM complete culture medium warmed to 37° C. Cells were then centrifugated at 300×g for 5 minutes at room temperature. The cell pellet was resuspended in phenol red-free MEM (Gibco; cat. no.: 51200-038)+1% charcoal/dextran-treated FBS (Hyclone; cat. no.: SH3006803) and 1×PenStrep warmed to 37° C. Cells were then counted using the TC20 automated cell-counter (Bio-Rad) and disposable duel chamber counting slides (Bio-Rad; cat. no.: 1450016) for a cell density of 1.5E5 cells/mL to then seed into the assay plate at 7.5E3 cells/well with 50 μL of media per well. Prior to the 24-hour time point, a solution of 1% formic acid (10×) (Honeywell; cat. no.: 94318) in MEM phenol red-free MEM+1% charcoal/dextran-treated FBS and 1×PenStrep was made. ATPlite luminescent ATP detection reagent (PerkinElmer; cat. no.: 6016739) was prepared according to the manufacturer's instructions. A new 384-well Falcon plate (collection plate) was seeded with 2 μL per well of 10× formic acid and then 18 μL of cell supernatant was added onto the formic acid, resulting in a 20 μL per well solution of 0.1% formic acid (1×) in supernatant. The plate of collected supernatant was immediately frozen on dry ice before being stored at −80° C. The collection plate was shipped to Momentum Biotechnologies for analysis. The remaining supernatant in the assay plate was discarded and 25 μL of ATPlite reagent was added to each well. […]

Row | Compound | pIC50
1 | COc1ccc(-c2nc3sc4c(S(=O)(=O)O)cccc4c3c(=O)n2Cc2cnco2)c(C2CC2)c1 [Example 12, 2-(2-cyclopropyl-4-methoxyphenyl)-3-(oxazol-5-ylmethyl)-4-oxo-3,4-dihydrobenzo[4,5]thieno[2,3-d]pyrimidine-8-sulfonic acid] | 4.00 to 6.00
2 | COc1ccc(-c2nc3sc4c(O)c(C=O)ccc4c3c(=O)n2Cc2cnco2)c(C2CC2)c1 [Example 31, 2-(2-cyclopropyl-4-methoxyphenyl)-8-hydroxy-3-(oxazol-5-ylmethyl)-4-oxo-3,4-dihydrobenzo[4,5]thieno[2,3-d]pyrimidine-7-carbaldehyde] | 4.00 to 6.00
3 | COc1ccc(-c2nc3sc4c(O)c(C(=O)O)ccc4c3c(=O)n2Cc2cnco2)c(C2CC2)c1 [Example 34, 2-(2-cyclopropyl-4-methoxyphenyl)-8-hydroxy-3-(oxazol-5-ylmethyl)-4-oxo-3,4-dihydrobenzo[4,5]thieno[2,3-d]pyrimidine-7-carboxylic acid] | 4.00 to 6.00
4 | COc1ccc(-c2nc3sc4c(O)c(-c5ccccc5)ccc4c3c(=O)n2Cc2cnco2)c(C2CC2)c1 [Example 35, 2-(2-cyclopropyl-4-methoxyphenyl)-8-hydroxy-3-(oxazol-5-ylmethyl)-7-phenylbenzo[4,5]thieno[2,3-d]pyrimidin-4(3H)-one] | 4.00 to 6.00
5 | COc1ccc(-c2nc3sc4c(Br)c(O)ccc4c3c(=O)n2Cc2cnco2)c(C2CC2)c1 [Example 37, 8-bromo-2-(2-cyclopropyl-4-methoxyphenyl)-7-hydroxy-3-(oxazol-5-ylmethyl)benzo[4,5]thieno[2,3-d]pyrimidin-4(3H)-one] | 4.00 to 6.00
6 | COc1ccc(-c2nc3sc4c(ccc5oc(=O)[nH]c54)c3c(=O)n2Cc2cnco2)c(C2CC2)c1 [Example 38, 8-(2-cyclopropyl-4-methoxyphenyl)-7-(oxazol-5-ylmethyl)oxazolo[4″,5″:3′,4′]benzo[1′,2′:4,5]thieno[2,3-d]pyrimidine-2,6(1H,7H)-dione] | 4.00 to 6.00
7 | COc1ccc(-c2nc3sc4c(O)c(Cl)ccc4c3c(=O)n2Cc2ccno2)c(C2CC2)c1 [Example 47, 7-chloro-2-(2-cyclopropyl-4-methoxyphenyl)-8-hydroxy-3-(isoxazol-5-ylmethyl)benzo[4,5]thieno[2,3-d]pyrimidin-4(3H)-one] | > 7.00
8 | COc1ccc(-c2nc3sc4c(O)c(Cl)ccc4c3c(=O)n2Cc2cnc(C3CC3)o2)c(C2CC2)c1 [Example 49, 7-chloro-2-(2-cyclopropyl-4-methoxyphenyl)-3-((2-cyclopropyloxazol-5-yl)methyl)-8-hydroxybenzo[4,5]thieno[2,3-d]pyrimidin-4(3H)-one] | > 7.00
9 | COc1ccc(-c2nc3sc4c(O)c(Cl)ccc4c3c(=O)n2CC(=O)NCCO)c(C2CC2)c1 [Example 51, 2-(7-chloro-2-(2-cyclopropyl-4-methoxyphenyl)-8-hydroxy-4-oxobenzo[4,5]thieno[2,3-d]pyrimidin-3(4H)-yl)-N-(2-hydroxyethyl)acetamide] | 6.00 to 6.30
10 | COc1ccc(-c2nc3sc4c(O)c(Cl)ccc4c3c(=O)n2Cc2sc(C)nc2C)c(C2CC2)c1 [Example 53, 7-chloro-2-(2-cyclopropyl-4-methoxyphenyl)-3-((2,4-dimethylthiazol-5-yl)methyl)-8-hydroxybenzo[4,5]thieno[2,3-d]pyrimidin-4(3H)-one] | > 7.00
11 | COc1ccc(-c2nc3sc4c(O)c(Cl)ccc4c3c(=O)n2CC2=NCCO2)c(C2CC2)c1 [Example 54, 7-chloro-2-(2-cyclopropyl-4-methoxyphenyl)-3-((4,5-dihydrooxazol-2-yl)methyl)-8-hydroxybenzo[4,5]thieno[2,3-d]pyrimidin-4(3H)-one] | 6.30 to 7.00
12 | COc1ccc(-c2nc3sc4c(O)c(F)ccc4c3c(=O)n2Cc2cnco2)c(C2CC2)c1 [Example 56, 2-(2-cyclopropyl-4-methoxyphenyl)-7-fluoro-8-hydroxy-3-(oxazol-5-ylmethyl)benzo[4,5]thieno[2,3-d]pyrimidin-4(3H)-one] | > 7.00
13 | COc1ccc(-c2nc3sc4c(O)c(Cl)ccc4c3c(=O)n2Cc2cnc(C)nc2)c(C2CC2)c1 [Example 58, 7-chloro-2-(2-cyclopropyl-4-methoxyphenyl)-8-hydroxy-3-((2-methylpyrimidin-5-yl)methyl)benzo[4,5]thieno[2,3-d]pyrimidin-4(3H)-one] | > 7.00
14 | COc1ccc(-c2nc3sc4c(O)c(Cl)ccc4c3c(=O)n2Cc2cnc(C)o2)c(C2CC2)c1 [Example 59, 7-chloro-2-(2-cyclopropyl-4-methoxyphenyl)-8-hydroxy-3-((2-methyloxazol-5-yl)methyl)benzo[4,5]thieno[2,3-d]pyrimidin-4(3H)-one] | > 7.00

Results, then the molecule that gave them:

Row | pIC50 | Compound
15 | > 7.00 | COc1ccc(-c2nc3sc4c(OC(C)=O)c(Cl)ccc4c3c(=O)n2Cc2cnco2)c(C2CC2)c1 [Example 27, 7-chloro-2-(2-cyclopropyl-4-methoxyphenyl)-3-(oxazol-5-ylmethyl)-4-oxo-3,4-dihydrobenzo[4,5]thieno[2,3-d]pyrimidin-8-yl acetate]
16 | 6.00 to 6.30 | COc1ccc(-c2nc3sc4c(O)c(C#N)ccc4c3c(=O)n2Cc2cnco2)c(C2CC2)c1 [Example 33, 2-(2-cyclopropyl-4-methoxyphenyl)-8-hydroxy-3-(oxazol-5-ylmethyl)-4-oxo-3,4-dihydrobenzo[4,5]thieno[2,3-d]pyrimidine-7-carbonitrile]
17 | 6.30 to 7.00 | COC(=O)Cn1c(-c2ccc(OC)cc2C2CC2)nc2sc3c(O)c(Cl)ccc3c2c1=O [Example 45, methyl 2-(7-chloro-2-(2-cyclopropyl-4-methoxyphenyl)-8-hydroxy-4-oxobenzo[4,5]thieno[2,3-d]pyrimidin-3(4H)-yl)acetate]
18 | 4.00 to 6.00 | COc1ccc(-c2nc3sc4c(O)c(Cl)ccc4c3c(=O)n2CC(=O)O)c(C2CC2)c1 [Example 46, 2-(7-chloro-2-(2-cyclopropyl-4-methoxyphenyl)-8-hydroxy-4-oxobenzo[4,5]thieno[2,3-d]pyrimidin-3(4H)-yl)acetic acid]
19 | > 7.00 | COc1ccc(-c2nc3sc4c(O)ccc(F)c4c3c(=O)n2Cc2cnco2)c(C2CC2)c1 [Example 55, 2-(2-cyclopropyl-4-methoxyphenyl)-5-fluoro-8-hydroxy-3-(oxazol-5-ylmethyl)benzo[4,5]thieno[2,3-d]pyrimidin-4(3H)-one]
20 | > 7.00 | COc1ccc(-c2nc3sc4c(O)c(Cl)ccc4c3c(=O)n2Cc2cnoc2)c(C2CC2)c1 [Example 57, 7-chloro-2-(2-cyclopropyl-4-methoxyphenyl)-8-hydroxy-3-(isoxazol-4-ylmethyl)benzo[4,5]thieno[2,3-d]pyrimidin-4(3H)-one]
21 | > 7.00 | Cc1cc(Cn2c(-c3cc(F)c(F)cc3C3CC3)nc3sc4c(O)c(Cl)ccc4c3c2=O)on1 [Example 60, 7-chloro-2-(2-cyclopropyl-4,5-difluorophenyl)-8-hydroxy-3-((3-methylisoxazol-5-yl)methyl)benzo[4,5]thieno[2,3-d]pyrimidin-4(3H)-one]
